Where a name gives a salt, the structure may show the parent alone. Read-outs that look alike come from different tables or passages of the source.

From patent publication US20040038855A1 (priority 1999, published 2004) come the findings set out here.

The target of assay [1] is T1, human Histamine H1 receptor (Homo sapiens, UniProt P35367).
T1 construct: expressed in transfected cells
The experiment in a line: Binding affinity at the human histamine H1 receptor. An outline of the steps:
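Receptor binding read-out throughout; membranes expressing human D1 or D2 receptor were used for those two targets.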

A further assay addresses human MCH1 receptor (Homo sapiens, UniProt Q99705). Put plainly: Intracellular calcium response to MCH in COS-7 cells transfected with MCH1 (fluo-3, FLIPR): antagonist potency. The assay is classed as cell-based. Details: expressed in transfected cells; host or cells: COS-7. From the text:
MCH1 antagonist compounds were identified by their ability to inhibit the MCH-elicited response. […]. From the IC50 values, the antagonist potency (Kb)was derived using the Cheng-Prussof correction (Lazareno and Birdsall, 1993). […]
In general terms: Calcium flux is commonly read through the fluorescence of an indicator in the cells.

A further assay addresses rat D3 receptor (Rattus norvegicus, UniProt P19020). Put plainly: Binding affinity at the rat dopamine D3 receptor. As to conditions: Table 3d; read-out: rD3 Ki. The source says:
(§1) Other receptors: Cell membranes expressing human dopamine D1, D2, D4 and rat D3 receptors were purchased through BioSignal, Inc. (Montreal, Canada). Binding assays using the histamine H1 receptor; dopamine receptors; and α1A, α1B, and α2 adrenergic receptors may be carried out according to the procedures described in U.S. Pat. No. 5,780,485, the disclosure of which is hereby incorporated by reference in its entirety into this application. Binding assays using the dopamine D5 receptor may be carried out according to the procedures described in U.S. Pat. No. 5,882,855, the disclosure of which is hereby incorporated by reference in its entirety into this application. Binding assays for the human α1D adrenergic receptor may be carried out according to the procedures described in U.S. Pat. No. 6,156,518, the disclosure of which is hereby incorporated by reference in its entirety into this application.

In assay [2] the target is T2, human dopamine D1 receptor (Homo sapiens, UniProt P21728).
T2 construct: purchased BioSignal, Inc. (Montreal, Canada)
The experiment in a line: Binding affinity at the human dopamine D1 receptor. As to conditions: Table 3d; read-out: hD1 Ki.
Description: as §1

The target in assay [3] is T3, human H2 histamine receptor (Homo sapiens, UniProt P25021).
T3 construct: expressed in transfected cells
The experiment in a line: Binding affinity at the human histamine H2 receptor. The source says: Binding studies for the β-adrenoceptor may be performed according to the method of Riva and Creese, 1989. Binding assays for the remainder of the receptors may be carried out according to the procedures described in U.S. Pat. No. 5,780,485, the disclosure of which is hereby incorporated by reference in its entirety into this application.

Assay [4] addresses T4, human dopamine D5 receptor (Homo sapiens, UniProt P21918).
T4 construct: expressed in transfected cells
Put plainly: Binding affinity at the human dopamine D5 receptor. As to conditions: Table 3d; read-out: hD5 Ki.
Description: as §1

The target of assay [5] is T5, human Dopamine D2 receptor (Homo sapiens, UniProt P14416).
T5 construct: purchased BioSignal, Inc. (Montreal, Canada)
The experiment in a line: Binding affinity at the human dopamine D2 receptor. As to conditions: Table 3d; * = >50000; read-out: hD2 Ki. In short, it runs like this: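 Membrane-based binding format. For D1 and D2, membranes came from cells expressing the human receptor; the α2A and D5 binding assays are described only as standard receptor-binding procedures.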

In the next assay the target is T6, human α2B adrenoceptor (Homo sapiens, UniProt P18089).
T6 construct: expressed in transfected cells
T6 sequence (P18089 1-450): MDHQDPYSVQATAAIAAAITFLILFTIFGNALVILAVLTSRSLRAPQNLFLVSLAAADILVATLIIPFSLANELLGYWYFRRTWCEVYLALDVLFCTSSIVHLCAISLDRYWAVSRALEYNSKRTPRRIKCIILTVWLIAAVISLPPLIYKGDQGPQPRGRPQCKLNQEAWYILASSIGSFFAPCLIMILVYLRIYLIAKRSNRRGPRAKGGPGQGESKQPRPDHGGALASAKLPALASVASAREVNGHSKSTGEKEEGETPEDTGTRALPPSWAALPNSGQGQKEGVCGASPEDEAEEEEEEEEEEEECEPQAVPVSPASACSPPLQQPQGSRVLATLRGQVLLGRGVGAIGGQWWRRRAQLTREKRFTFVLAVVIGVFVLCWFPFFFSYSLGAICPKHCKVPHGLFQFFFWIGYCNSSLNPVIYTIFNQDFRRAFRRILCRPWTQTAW
The experiment in a line: Binding affinity at the human α2B adrenergic receptor.
Description: as §1

The next assay addresses T7, human α2C adrenoceptor (Homo sapiens, UniProt P18825).
T7 construct: expressed in transfected cells
T7 sequence (P18825 1-462): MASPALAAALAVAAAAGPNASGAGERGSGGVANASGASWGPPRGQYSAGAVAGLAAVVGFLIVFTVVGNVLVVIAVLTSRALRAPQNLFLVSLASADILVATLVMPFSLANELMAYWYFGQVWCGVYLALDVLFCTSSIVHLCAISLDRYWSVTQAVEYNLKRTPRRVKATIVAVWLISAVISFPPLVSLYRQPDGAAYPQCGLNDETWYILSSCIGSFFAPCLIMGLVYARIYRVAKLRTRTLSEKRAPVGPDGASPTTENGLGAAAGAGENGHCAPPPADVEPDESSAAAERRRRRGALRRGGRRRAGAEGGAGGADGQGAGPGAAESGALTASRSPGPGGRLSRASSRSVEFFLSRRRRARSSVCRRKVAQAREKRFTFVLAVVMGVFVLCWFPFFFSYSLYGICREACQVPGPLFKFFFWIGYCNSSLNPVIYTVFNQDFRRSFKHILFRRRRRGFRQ
Put plainly: Binding affinity at the human α2C adrenergic receptor.
Description: as §1

The target in a further assay is T8, human 5HT2A receptor (Homo sapiens, UniProt P28223).
T8 construct: expressed in transfected cells; host or cells: COS7 cells, transient, DEAE dextran, vector pCEXV3
Put plainly: Binding affinity at the human 5HT2A receptor ([3H]ketanserin). As to conditions: Table 3e; read-out: h5HT2A Ki. On the procedure: Human 5HT2A Receptor: The coding sequence of the human 5HT2A receptor was obtained from a human brain cortex cDNA library, and cloned into the cloning site of pCEXV3 eukaryotic expression vector. This construct was transfected into COS7 cells by the DEAE dextran method (Cullen, 1987). Cells were harvested after 72 hours and lysed by sonication in 5 mM Tris HCl, 5 mM EDTA, pH 7.5. The cell lysates were subjected to centrifugation at 1000 rpm for 5 minutes at 4° C., and the supernatant was subjected to centrifugation at 30,000×g for 20 minutes at 4° C. The pellet was suspended in 50 mM Tris HCl buffer (pH 7.7 at room temperature) containing 10 mM MgSO4, 0.5 mM EDTA, and 0.1% ascorbate. […] Nonspecific binding was defined by the addition of 10 μM mianserin. The bound radioligand was separated by filtration through GF/B filters using a cell harvester.

T3 sequence (P25021 whole entry): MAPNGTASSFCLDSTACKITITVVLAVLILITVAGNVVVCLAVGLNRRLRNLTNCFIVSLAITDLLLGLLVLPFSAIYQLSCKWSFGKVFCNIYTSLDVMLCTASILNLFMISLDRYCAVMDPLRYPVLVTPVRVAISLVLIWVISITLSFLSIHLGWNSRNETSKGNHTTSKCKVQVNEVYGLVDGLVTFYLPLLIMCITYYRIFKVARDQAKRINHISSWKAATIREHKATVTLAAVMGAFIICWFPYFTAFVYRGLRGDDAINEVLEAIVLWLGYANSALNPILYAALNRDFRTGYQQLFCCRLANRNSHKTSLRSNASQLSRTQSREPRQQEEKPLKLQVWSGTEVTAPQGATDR
human MCH1 receptor, sequence (Q99705 whole entry): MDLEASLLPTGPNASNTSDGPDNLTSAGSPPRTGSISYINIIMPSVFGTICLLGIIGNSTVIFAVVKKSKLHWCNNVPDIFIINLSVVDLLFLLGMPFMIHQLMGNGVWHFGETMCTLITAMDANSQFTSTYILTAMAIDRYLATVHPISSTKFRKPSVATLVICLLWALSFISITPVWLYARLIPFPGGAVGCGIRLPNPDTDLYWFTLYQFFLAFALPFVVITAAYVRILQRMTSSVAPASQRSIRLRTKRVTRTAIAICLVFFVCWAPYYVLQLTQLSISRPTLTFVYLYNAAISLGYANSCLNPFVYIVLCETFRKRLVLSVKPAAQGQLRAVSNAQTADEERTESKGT
T1 sequence (P35367 whole entry): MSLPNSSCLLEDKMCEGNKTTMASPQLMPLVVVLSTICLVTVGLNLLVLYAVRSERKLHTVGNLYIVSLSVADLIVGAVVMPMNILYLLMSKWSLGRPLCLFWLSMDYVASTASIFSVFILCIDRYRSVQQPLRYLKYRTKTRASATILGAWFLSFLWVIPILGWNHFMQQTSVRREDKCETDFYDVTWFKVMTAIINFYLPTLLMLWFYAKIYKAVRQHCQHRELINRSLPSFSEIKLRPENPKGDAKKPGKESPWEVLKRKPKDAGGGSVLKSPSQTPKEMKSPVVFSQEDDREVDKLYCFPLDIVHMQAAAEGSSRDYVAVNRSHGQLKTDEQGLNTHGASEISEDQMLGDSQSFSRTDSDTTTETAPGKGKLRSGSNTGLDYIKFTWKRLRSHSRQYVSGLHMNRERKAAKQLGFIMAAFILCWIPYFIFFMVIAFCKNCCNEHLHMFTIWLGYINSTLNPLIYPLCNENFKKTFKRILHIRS
T5 sequence (P14416 whole entry): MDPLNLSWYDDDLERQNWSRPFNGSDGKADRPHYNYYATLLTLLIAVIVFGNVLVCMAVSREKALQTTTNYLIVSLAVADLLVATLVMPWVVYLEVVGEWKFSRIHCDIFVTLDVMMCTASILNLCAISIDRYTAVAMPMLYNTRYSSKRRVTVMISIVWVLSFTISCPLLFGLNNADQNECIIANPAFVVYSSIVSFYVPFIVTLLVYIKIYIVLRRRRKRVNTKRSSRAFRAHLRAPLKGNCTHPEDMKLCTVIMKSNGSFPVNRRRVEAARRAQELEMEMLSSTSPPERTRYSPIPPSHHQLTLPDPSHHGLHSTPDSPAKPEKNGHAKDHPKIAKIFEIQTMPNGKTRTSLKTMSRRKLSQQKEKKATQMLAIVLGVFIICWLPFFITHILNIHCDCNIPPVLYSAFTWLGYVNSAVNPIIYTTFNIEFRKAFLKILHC
T8 sequence (P28223 whole entry): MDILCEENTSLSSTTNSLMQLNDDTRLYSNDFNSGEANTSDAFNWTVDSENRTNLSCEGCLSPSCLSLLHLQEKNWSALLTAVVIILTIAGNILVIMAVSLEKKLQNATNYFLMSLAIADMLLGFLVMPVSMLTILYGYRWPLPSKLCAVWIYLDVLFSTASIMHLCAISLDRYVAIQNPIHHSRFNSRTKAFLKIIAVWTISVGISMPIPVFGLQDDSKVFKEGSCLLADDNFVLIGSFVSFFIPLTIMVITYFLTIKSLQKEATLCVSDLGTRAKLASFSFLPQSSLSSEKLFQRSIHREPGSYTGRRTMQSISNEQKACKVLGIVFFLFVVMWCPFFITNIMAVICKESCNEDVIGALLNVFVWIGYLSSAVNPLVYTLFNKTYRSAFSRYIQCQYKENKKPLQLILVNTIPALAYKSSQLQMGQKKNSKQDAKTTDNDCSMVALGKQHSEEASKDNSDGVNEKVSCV
T2 sequence (P21728 whole entry): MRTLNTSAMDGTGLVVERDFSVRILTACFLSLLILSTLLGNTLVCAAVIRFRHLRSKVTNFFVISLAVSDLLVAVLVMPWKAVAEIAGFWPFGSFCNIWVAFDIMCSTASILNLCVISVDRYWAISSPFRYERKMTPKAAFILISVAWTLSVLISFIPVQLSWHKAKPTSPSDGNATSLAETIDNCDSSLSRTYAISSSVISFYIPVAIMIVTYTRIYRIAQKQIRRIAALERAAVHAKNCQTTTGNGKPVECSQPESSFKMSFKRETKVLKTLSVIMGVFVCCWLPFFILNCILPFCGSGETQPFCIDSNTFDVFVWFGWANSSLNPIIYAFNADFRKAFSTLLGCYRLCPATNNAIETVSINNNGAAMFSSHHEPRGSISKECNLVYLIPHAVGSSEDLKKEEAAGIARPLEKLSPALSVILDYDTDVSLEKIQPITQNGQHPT
T4 sequence (P21918 whole entry): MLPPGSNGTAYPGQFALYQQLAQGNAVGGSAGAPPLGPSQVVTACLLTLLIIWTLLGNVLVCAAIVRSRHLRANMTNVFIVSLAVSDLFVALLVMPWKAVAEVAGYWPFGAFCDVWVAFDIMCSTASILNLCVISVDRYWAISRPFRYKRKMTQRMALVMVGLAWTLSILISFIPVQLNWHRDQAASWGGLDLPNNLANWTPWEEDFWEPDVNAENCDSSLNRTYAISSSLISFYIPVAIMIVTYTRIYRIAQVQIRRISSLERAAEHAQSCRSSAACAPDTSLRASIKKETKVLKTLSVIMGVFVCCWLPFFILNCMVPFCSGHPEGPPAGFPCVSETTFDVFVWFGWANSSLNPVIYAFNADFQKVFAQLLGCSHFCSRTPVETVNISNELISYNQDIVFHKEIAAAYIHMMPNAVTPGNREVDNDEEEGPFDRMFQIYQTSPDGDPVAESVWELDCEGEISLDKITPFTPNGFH
rat D3 receptor, sequence (P19020 whole entry): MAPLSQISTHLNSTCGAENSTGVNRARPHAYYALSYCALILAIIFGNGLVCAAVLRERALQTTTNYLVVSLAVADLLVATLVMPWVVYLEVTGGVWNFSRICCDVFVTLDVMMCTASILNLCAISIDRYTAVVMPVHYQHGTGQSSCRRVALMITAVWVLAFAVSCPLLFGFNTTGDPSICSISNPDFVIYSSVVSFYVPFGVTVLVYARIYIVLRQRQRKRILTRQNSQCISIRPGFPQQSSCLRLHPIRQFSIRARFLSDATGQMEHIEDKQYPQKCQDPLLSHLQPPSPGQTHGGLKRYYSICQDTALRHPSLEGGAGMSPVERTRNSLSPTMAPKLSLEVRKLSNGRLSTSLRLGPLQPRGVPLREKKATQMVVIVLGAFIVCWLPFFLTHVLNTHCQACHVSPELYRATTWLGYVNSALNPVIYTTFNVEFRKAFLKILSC

By Ki is commonly meant the dissociation constant of the complex between target and ligand, obtained from inhibition or displacement. As a reminder, the Kb is the affinity of an antagonist, worked out from how it opposes an agonist. As for `COCC1=C(C(=O)OC)[C@H](c2ccc(F)c(F)c2)N(C(=O)NCCCN2CCC(c3cccc(NC(C)=O)c3)CC2)C(=O)N1` [Example 10, (+)-1,2,3,6-TETRAHYDRO-1-{N-[4-(3,-ACETAMIDO)-PHENYLPIPERIDIN-1-YL]PROPYL}CARBOXAMIDO-4-METHOXYMETHYL-6-(3,4-DIFLUORO-PHENYL)-2-OXOPYRIMIDINE-5-CARBOXYLIC ACID METHYL ESTER], the inhibition constant Ki in assay [1] (Table 3e, read-out: hH1 Ki) was 4880 nM; on rat D3 receptor, 5890 nM; in assay [2], 1930 nM; in [3] (Table 3e, * = >50000, read-out: hH2 Ki) it was more than 50000 nM; in [4] it was 773 nM; in assay [5], more than 50000 nM. In addition, at human MCH1 receptor (intracellular calcium mobilization assay, read-out: antagonist potency (Kb)), the Kb came to 0.3 nM.

On to `COCC1=C(C(=O)OC)C(c2ccc(F)c(F)c2)N(C(=O)NCCCN2CCC(c3cccc(NC(C)=O)c3)CC2)C(=O)N1` (single isomer, unassigned; (-)) [Example 1, (−)-1,2,3,6-TETRAHYDRO-1-{N-[4-(3,-ACETAMIDO)-PHENYLPIPERIDIN-1-YL]PROPYL}CARBOXAMIDO-4-METHOXYMETHYL-6-(3,4-DIFLUORO-PHENYL)-2-OXOPYRIMIDINE-5-CARBOXYLIC ACID METHYL ESTER], for which, at human MCH1 receptor (read-out: Kb (nM) hMCH1), the antagonist dissociation constant (Kb) stood at 42 nM.

For `COC(=O)C1=C(C)NC(=O)N(C(=O)NCCCN2CCC3(CC2)OCc2ccccc23)C1c1ccc2nonc2c1` (single isomer, unassigned) [Example 18, HYDROCHLORIDE], the inhibition constant Ki on human α2B adrenoceptor came to 74 nM; in assay [1], 31 nM; on human α2C adrenoceptor, 96 nM; on rat D3 receptor, 1220 nM; in [2] it was 596 nM; in [3], 944 nM. Moreover, the values for the inhibition constant Ki (in assay [4]; at human 5HT2A receptor; in assay [5]) were 2540 nM, 1570 nM and 624 nM, respectively. Moreover, the antagonist dissociation constant (Kb) on human MCH1 receptor was 1 nM.

Consider `COC(=O)C1=C(C)NC(=O)N(C(=O)NCCCN2CCC3(CC2)OCc2ccccc23)C1c1ccc(F)c(F)c1` (stereo not drawn) [Example 20, 4-(3,4-DIFLUORPHENYL)-6-METHYL-2-OXO-3-{[3-(4-SPIRO[ISOBENZOFURAN-1(3H),4′-PIPERIDINE]PROPYL}-1,2,3,4-TETRAHYDROPYRIMIDINE-5-CARBOXYLIC ACID METHYL ESTER], for which the inhibition constant Ki on human α2B adrenoceptor was found to be 97 nM; in assay [1] it was 39 nM; at human α2C adrenoceptor (Table 3d, read-out: hα2C Ki), 138 nM; in [3], 1910 nM; at human 5HT2A receptor, 2820 nM.

Regarding “2-(3,4-DIFLUOROPHENYL)4,5-DIHYDROIMIDAZOLE-1-CARBOXYLIC ACID {3-[4-PHENYL-4-(4-BROMO-5-METHYLTHIOPNEN-2-YL)]-PROPYL}-AMIDE [Example 19]”, the Ki on human α2B adrenoceptor (Table 3d, read-out: hα2B Ki) is 349 nM; in assay [1] (Table 3e, read-out: hH1 Ki), 11 nM; on human α2C adrenoceptor (Table 3d, read-out: hα2C Ki), 174 nM. Also, the Kb at human MCH1 receptor (Table 3a, antagonist potency, read-out: hMCH1 Kb) came out at 7 nM; on human MCH1 receptor (Table 3b, antagonist potency, read-out: hMCH1 Kb), 7 nM; at human MCH1 receptor (antagonist potency, inhibition of the response to 500 nM MCH, IC50 corrected by Cheng-Prussof, read-out: Kb (nM) hMCH1), 7 nM.

Consider `CCC1=C(C(=O)O)C(c2ccc(F)c(F)c2)N(C(=O)NCCCN2CCC3(CC2)OCc2ccccc23)C(=O)N1` (single isomer, unassigned; (+)) [Example 4, (+)-1,2,3,6-TETRAHYDRO-1-1N-[4-(BENZO-4′,5′(H)FURAN)PIPERIDIN-1-YL]PROPYL}-CARBOXAMIDO-4-ETHYL-6-(3,4-DIFLUOROPHENYL)-2-OXO-PYRIMIDINE-5 CARBOXYLIC ACID HYDROCHLORIDE], for which the antagonist dissociation constant (Kb) on human MCH1 receptor (read-out: Kb (nM) hMCH1) worked out at 187 nM.
